Measured values taken from patent US20250057807A1, “TREATING A DISEASE USING A […] ACTIVE INGREDIENT PRESENT IN A PSEUDO-TERNARY PHASE SYSTEM” (Hepion Pharmaceuticals, Inc., priority 2018, published 2025).
“And” between values parts separate entries of the source, which are not always exact repeats. Equal entries are not always repeated. Where a SMILES comes first, the peptide text is derived from it. [ ]: non-standard residue; d: D form. NMeThr(4R-Me,4-(CH2)6NHAc) = CN[C@H](C(=O)O)[C@H](O)[C@H](C)CCCCCCNC(C)=O; NMeL = CN[C@@H](CC(C)C)C(=O)O; NMeV = CN[C@H](C(=O)O)C(C)C; dNMeA = CN[C@H](C)C(=O)O; Abu = CC[C@H](N)C(=O)O

Tests used:
[1] = physchem; settings: pH 7.4, aqueous buffer, kinetic from dmso stock
Procedure: (§1) The supernatant was collected, diluted 1:1 with methanol, and drug concentrations measured by HPLC (Agilent 1100 series, UV detection) relative to standard curves. The polar surface area and log P were calculated using Molinspiration Cheminformatics (V2018.10, USA). Plasma protein binding was determined by equilibrium dialysis assays. Drug plasma samples were prepared to achieve a final concentration of 5 μM in human blood plasma by 500-fold dilution of 2.5 mM DMSO-drug stocks. Plasma solutions (300 μl) and PBS, pH 7.4 (500 μl), were added to adjacent chambers of Rapid Equilibrium Dialysis units (Thermo Scientific; 8K MWCO). Plates were sealed with plastic film and shaken on an orbital shaker at 225 rpm at 37° C. for 4.5 hr. Plasma and PBS samples were collected, and drugs extracted with a zinc sulfate/methanol precipitation method. After centrifugation at 3,300 rpm for 10 min, soluble drugs in methanol supernatants were analyzed by Liquid Chromatography (LC) Electrospray Ionization (ESI) Mass Spectrometry (LC-ESI-MS) (Agilent 1100 series, Santa Clara, USA) and quantified relative to standard curves.

[2] = in vitro; settings: human, pH 7.4
Procedure: as §1

[3] = clinical; set-up: species or system human; settings: in vivo
Procedure: The study was conducted at a clinical research facility for investigational medicines (Celerion, Arizona, USA) as part of a clinical Phase 1 single-ascending-dose (SAD) study and followed all FDA ethical guidelines. Patients were selected according to standardized inclusion/exclusion criteria for a Phase I SAD study. Healthy volunteers 18-55 years of age with no evidence of ongoing disease (as determined by the study investigator), or any use of nicotine (30 days prior to screening), or drugs of abuse (within the preceding 2 years), or use of chronic prescription medication (within 30 days), or acute prescription medication (within 14 days), or systemic over-the-counter medications including vitamins and herbal/natural supplements (within 7 days prior to the study dose) were enrolled in the study. The SMEDDS was dispensed (approximately 3 ml) into a 100 ml Gibco clear bottle and a 15-fold excess of filtered water (HPLC grade) was added. The mixture was swirled gently for 1-2 minutes until fully dispersed. The SMEDDS in-water dose was placed in the refrigerator and orally administered within 2 hours. […] Samples were immediately frozen and analyzed by LC-ESI-MS within 5 days. Briefly, whole blood samples were thawed and extracted using a zinc sulfate/methanol precipitation method.

[4] = in vivo; set-up: species or system Sprague Dawley rats; settings: Sprague Dawley, rat, po, 30 mg/kg/day, liver level relative to whole blood
Procedure: SERIES 1 1/3/3/2/9 (Vitamin E/Maisine® CC/Propylene Glycol/Ethanol/Cremophor® RH40 (w/w/w/w/w)) CRV431 SMEDDS (50 mg/ml) was administered to Sprague Dawley rats (n=6) by oral gavage at 30 mg/kg/day for 7 days. At 12 hours post-dose on day 7, the animals were sacrificed and whole blood and livers were extracted and frozen. CRV431 was quantitated in whole blood using LC-ESI-MS (as for the human pharmacokinetic studies). For quantitation of CRV431 in liver, one gram samples of liver tissue were added to 9 ml of homogenizing solution (1% formic acid in water) and homogenized using a TissueLyser (Qiagen) at 30 Hz for 10 minutes. Aliquots were removed and analyzed by LC-ESI-MS as described above.

solubility [1]: 115 µg/mL and 115 µM
fraction unbound at 4.5 hr, 5 μM [2]: 0.076
half-life ([3]; human): ~100 h
Cmax ([3]; human, po, 1 mg/kg): 334 ± 106 ng/mL
Cmax relative to Neoral® ([3]; 2.5 mg/kg): slightly greater than Neoral®
overall exposure (AUC) relative to Neoral® ([3]; 2.5 mg/kg): approximately 14 times
Kp [4]: 6.5
SMILES: CC[C@@H]1NC(=O)[C@H]([C@H](O)[C@H](C)CCCCCCNC(C)=O)N(C)C(=O)[C@H](C(C)C)N(C)C(=O)[C@H](CC(C)C)N(C)C(=O)[C@H](CC(C)C)N(C)C(=O)[C@@H](C)NC(=O)[C@H](C)NC(=O)[C@H](CC(C)C)N(C)C(=O)[C@H](C(C)C)NC(=O)[C@H](CC(C)C)N(C)C(=O)[C@@H](C)N(C)C1=O [CRV431] (cyclo(A[dA][NMeL][NMeL][NMeV][NMeThr(4R-Me,4-(CH2)6NHAc)][Abu][dNMeA][NMeL]V[NMeL]))
